Test: Ability to inhibit glycinamide ribonucleotide transformylase (GAR-Tfase) in vitro, using hog liver with (6R)-10-formyl-FH4 as cofactor

| Structure (SMILES) | IC50 |
| --- | --- |
| Nc1nc(N)c(CCCNc2cnc(C(=O)N[C@H](CCC(=O)O)C(=O)O)s2)c(=O)[nH]1 [(S)-2-({5-[3-(2,4-Diamino-6-oxo-1,6-dihydro-pyrimidin-5-yl)-propylamino]-thiazole-2-carbonyl}-amino)-pentanedioic acid] | 140 nM |
| Nc1nc(N)c(CCCNc2ccc(C(=O)N[C@H](CCC(=O)O)C(=O)O)s2)c(=O)[nH]1 [(S)-2-({5-[3-(2,4-Diamino-6-oxo-1,6-dihydro-pyrimidin-5-yl)-propylamino]-thiophene-2-carbonyl}-amino)-pentanedioic acid] | 2060 nM |

— BindingDB's records for doi:10.1021/jm00039a025 (Wellcome Research Laboratories, 1994)
